Data from US11110182B2, “Multifunctional RNA nanoparticles and methods for treating cancer and therapeutic resistant cancer” (University of Cincinnati, priority 2016, dated 2021).
Strand notation (5' to 3'): a small letter for the sugar, then the base; units joined by * are phosphorothioate-linked, units joined directly phosphodiester-linked; [ ] holds rarer units or linkages, { } end groups; capitals alone tell only the bases. r = 2'-OH (RNA); f = 2'-fluoro

Tests used:
MED1 = MED1 protein level by western blotting in BT474 cells; type: cell-based, human; settings: BT474, 48 h
Procedure: FIG. 3A) BT474 cells were incubated with 10 μg/mL control and pRNA-HER2apt-siMED1 nanoparticles for 48 h, and MED1 mRNA level was determined by real-time PCR. FIG. 3B) BT474 cells were incubated directly with (as indicated by -) or transfected with indicated pRNAs using lipofectamine 2000. At 48 h post treatment, MED1 protein levels were determined by western blotting. FIG. 3C) BT474 cells were treated with 10 μg/mL pRNA nanoparticles for 48 h and assayed for cell viability by MTT assay. FIG. 3D) Cells were treated as above and seeded for migration, and FIG. 3E) invasion transwell assays. Scale bar: 50 μm. FIG. 3F) After pRNA treatment for 48 h, the mRNA levels of ERα target genes TFF-1, FIG. 3G) c-Myc, and FIG. 3H) cyclin D1 in BT474 cells were determined by real-time PCR.
FIG. 7A) Six HER2-targeting RNA aptamers were selected from previous literatures, and their secondary structures were predicted using Srna-fold software. FIG. 7B) Six p2 strands containing the six different HER2 RNA aptamers were synthesized and annealed with the same p1 strand to generate six different pRNA-HER2apt-MED1 siRNA nanoparticles, respectively, followed by examination using 8% native PAGE gel electrophoresis. FIG. 7C) BT474 cells were treated with above pRNA nanoparticles for 48 h, and then MED1 protein level was determined by western blotting. […] FIG. 7D) 1 μg pRNA nanoparticles were incubated with recombinant Dicer enzyme (Genlantis) at 37° C. for 12 h, the product was separated by 8% native PAGE gel.
FIG. 9A) BT474 cells were treated with different concentrations of pRNA nanoparticles as indicated for 48 h. After that, MED1 protein level was determined by western blots, and FIG. 9B) the cell viability was determined by MTT assay.
Cell culture. Human breast cancer luciferase-overexpressing BT474 and MDA-MB-231 cells were maintained in DMEM medium (Hyclone, Thermo Scientific) supplemented with 10% fetal bovine serum (FBS, Sigma) and 1% penicillin/streptomycin (Corning) at 37° C. in a humidified atmosphere with 5% CO2.^53 • Generation of pRNA nanoparticles. The two strands of pRNA were synthesized with the DNA templates, which were amplified with overlapping primers (Sigma) by PCR methods, using a T7 promoter-controlled in vitro RNA transcription system as previously described^33 (Table 1). All the CTP and UTP used for synthesis of the pRNA nanoparticles were 2′-fluoro modified, except the control unmodified pRNA nanoparticles used in the stability assays. Following an overnight transcription at 37° C., RNA strands were purified using RNA clean and concentrator kits (ZYMO research) and examined by 8 M urea denatured 8% PAGE gel. pRNA nanoparticles were assembled by mixing the equal molar amounts of p1 and p2 strands and gradually annealing from 90° C. to 20° C. in 1×RNA annealing buffer containing 50 mM Tris-HCl (pH 7.5), 50 mM NaCl and 1 mM EDTA on a PCR machine. […] The hydrodynamic diameter and Tm value of pRNA nanoparticles were determined using dynamic light scattering and TGGE assay, respectively, as previously described.^54 The AFM imaging of the pRNA nanoparticles was performed at the University of Nebraska Medical Center imaging facility as previously reported.^55 Briefly, the pRNA nanoparticles (5 μL) were deposited on APS modified mica ^56 for a total of 2 min of incubation time. […]

[1] = system: BT474 orthotopic xenograft tumors; test: Anti-tumor therapy in BT474 orthotopic xenograft breast tumor mouse model; type: in vivo, athymic nude mice; settings: single agent; for tumor lung metastasis: H&E staining of whole lung
Procedure: FIG. 5A) BT474 orthotopic xenograft mouse models were treated with control pRNA-HER2apt-siScram or pRNA-HER2apt-siMED1 (4 mg/Kg) once a week, in combination with vehicle or tamoxifen (TAM, 0.5 mg/mice/day) 5 days per week. Tumor sizes were measured every three days. FIG. 5B) After three weeks, mice were i.p. injected with D-luciferin, and representative in vivo images of BT474 tumors were recorded using IVIS Lumina imaging system. FIG. 5C) Average weight of the tumors excised at the end of the treatment, and FIG. 5D) the representative photos of tumors. FIG. 5E and FIG. 5F) MED1 expression in the BT474 tumors was examined using IHC staining and FIG. 5G) immunoblotting. FIG. 5H) The expression of Ki-67 in tumor tissues was analyzed using IHC staining, and FIG. 5I) the percentage of Ki-67 positive cells was counted. Scale bar: 100 μm.
FIG. 6A) Whole lung tissues were fixed, embedded, and sectioned for H&E staining, and FIG. 6B) metastasis foci in the whole lung tissues were then counted. Arrow indicates the metastasis foci. Scale bar: 100 μm. FIG. 6C) After digesting tumor tissues with trypsin and 0.1% collagenase, tumor cells were stained for CD44 and CD24, and FIG. 6D) analyzed for CD44^+CD24^−/low stem cell population using flow cytometry. FIG. 6E) Total RNA in the tumor tissues was extracted using TRIZOL reagent, and the expression of TFF-1, FIG. 6F) c-Myc, FIG. 6G) cyclin D1, and FIG. 6H) MMP-9 were determined by real-time PCR.
Migration and metastasis assay. The 8-μm-pore-size polycarbonate membrane, which separates the two chambers of a 6.5-mm Transwell (Costar), was coated with or without 1:8 DMEM-diluted Matrigel (Corning). Transwell assay was performed as previously described.^57 Briefly, BT474 cells were treated with pRNAs alone or together with 4-hydroxy-tamoxifen (4-OHT) for 48 h and starved with serum-free DMEM containing 0.2% BSA overnight. On the next day, cells were collected and 2×10^5 cells were seeded to the upper chamber of Transwell. The lower chamber was filled with 600 μL DMEM medium containing 10% FBS. After incubation at 37° C. for 24 h, cells on the membranes were fixed and stained with 0.1% crystal violet in 20% ethanol solution. Cells at top side of membranes were removed completely, and cells at the bottom side were examined with an Olympus SZX12 microscope and counted. • Mammosphere culture and breast cancer stem cell analyses. BT474 cells were treated with pRNAs for 48 h. Then, cells were suspended in DMEM/F12 medium supplemented with 1×B27 (Thermo Fisher), 20 ng/mL bFGF and 20 ng/mL EGF (R&D), and added into 24-well ultralow attachment plates. After treatment with or without 1 μM 4-OHT for 7 days, mammosphere formation was recorded using an Axiovert S100 TV inverted microscope (Zeiss). Xenograft tumor tissues were cut into small pieces and digested with trypsin and collagenase at 37° C. for 1 h, and tumor cells were collected and rinsed with pre-cold PBS. All cells were stained with FITC-conjugated anti-CD44 antibody and PE-conjugated anti-CD24 antibody (BD Pharmingen) in the dark on ice for 30 min. After resuspension with 0.5 mL PBS buffer, CD44^+/CD24^−/low cell population was analyzed by flow cytometry. • Orthotopic xenograft breast tumor mouse model, in vivo imaging and anti-tumor therapy. Six-week-old female athymic nude mice were purchased from Charles River Laboratories, and all animal procedures were performed under IACUC-approved protocols at the University of Cincinnati. Athymic nude mice were orthotopically injected with 1×10^7 BT474-luc cells mixed with matrigel into the fat pads of the forth pair of mammary glands. When the tumor sizes reached 100-150 mm^3, the mice were randomly divided into four groups (4/group) and intravenously (i.v.) injected with pRNAs (4 mg/Kg) once a week for three weeks. For tamoxifen treatments, 0.5 mg tamoxifen (Sigma) dissolved in sesame oil was intraperitoneally (i.p.) injected into mice 5 days a week for three weeks. […]

| Molecule | efficiency of MED1 knockdown among six HER2 RNA aptamers in pRNA nanoparticles (MED1) | tumor lung metastasis [1] | tumor growth ([1]; pRNA 4 mg/Kg i.v. once a week or tamoxifen 0.5 mg i.p. 5 days a week, three weeks) |
| --- | --- | --- | --- |
| B3 aptamer: HER2-targeting RNA aptamer B3 (SEQ ID NO: 9), tested within pRNA-HER2apt-MED1 siRNA nanoparticles (rGrGrGrArGrGrAfCrGrAfUrGfCrGrGfUfCfUrGfCfUrGfUrGfCfUfUrGrAfUrAfUrGfCfCfCfCrArGrAfCrGrAfCfUfCrGfCfCfC; part of pRNA three-way junction nanoparticle with siRNA) | highest efficiency | – | – |
| CC/C(=C(\c1ccccc1)c1ccc(OCCN(C)C)cc1)c1ccccc1 [tamoxifen, reference compound] | – | multiple tumor lung metastasis foci | only weakly inhibited |
| pRNA-HER2apt-siScram: control pRNA nanoparticle with HER2 aptamer and scramble siRNA; strands p1 SEQ ID NO: 1, p2 SEQ ID NO: 2 (nucleic acid, pRNA-HER2apt-siScram, p1; pRNA-HER2apt-siScram, p2) chain 1: GGAUCACGCUUCAUAUACAAAGGAUCAAUCAUGGCCAAUCUUAUUUCGCCCAUGACCUU chain 2: GGUCAUGGGCGAAAUAAGAAAGGCCAUGUGUAUGUGGGGGGAGGACGAUGCGGUCUGCUGUGCUUGAUAUGCCCCAGACGACUCGCCCCCCACAUACUUUGUUGAUCCAAUGUAUAUGAAGCGUGAUCCUU | – | multiple tumor lung metastasis foci | – |
